According to patent publication US20090300848A1, “EPOXIDE-BASED TANNAGE SYSTEM” (BLC LEATHER TECHNOLOGY CENTRE LTD, priority 2006, published 2009):
Converted amounts (≈) assume the structure as drawn.

Test: solubility in aqueous phase
Format: physicochemical
Conditions: water, 25° C.
From the text: By having an aromatic-like, heterocyclic triazine nucleus, it is believed to impart a network structure into the protein during tanning, giving better thermal stability.

solubility: 10000 µg/mL (≈ 33.6 mM)
SMILES: O=c1n(CC2CO2)c(=O)n(CC2CO2)c(=O)n1CC1CO1 (stereo not shown) [TGIC, trigycidyl isocyanurate]
